Experimental data: PubChem BioAssay (NCI)
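96-well plates; 48 h exposure; 5 concentrations. Endpoints by linear interpolation between flanking doses. Not reached: highest tested concentration assigned. TGI marks complete inhibition of growth.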

Legend:
Test in all cases: inhibition of tumour cell growth, NCI panel, 48 h
MDA-N = test system: MDA-N
SF-295 CNS = test system: SF-295 CNS
MCF7 breast = test system: MCF7 breast
NCI-H522 lung = test system: NCI-H522 lung
HL-60(TB) leukemia = test system: HL-60(TB) leukemia
CCRF-CEM leukemia = test system: CCRF-CEM leukemia
NCI-H226 lung = test system: NCI-H226 lung
SK-MEL-2 melanoma = test system: SK-MEL-2 melanoma
HS 578T breast = test system: HS 578T breast
TK-10 renal = test system: TK-10 renal
786-0 renal = test system: 786-0 renal
HCT-116 colon = test system: HCT-116 colon
SR leukemia = test system: SR leukemia
KM12 colon = test system: KM12 colon
T-47D breast = test system: T-47D breast
NCI-H23 lung = test system: NCI-H23 lung
MOLT-4 leukemia = test system: MOLT-4 leukemia
EKVX NSCLC = test system: EKVX NSCLC
OVCAR-4 ovarian = test system: OVCAR-4 ovarian
CAKI-1 renal = test system: CAKI-1 renal
SN12C renal = test system: SN12C renal
SNB-19 CNS = test system: SNB-19 CNS
SNB-75 CNS = test system: SNB-75 CNS
SK-MEL-28 melanoma = test system: SK-MEL-28 melanoma
PC-3 prostate = test system: PC-3 prostate
UACC-62 melanoma = test system: UACC-62 melanoma
SW-620 colon = test system: SW-620 colon
HCT-15 colon = test system: HCT-15 colon
MDA-MB-435 = test system: MDA-MB-435
HT29 colon = test system: HT29 colon
MDA-MB-231 breast = test system: MDA-MB-231 breast
OVCAR-3 ovarian = test system: OVCAR-3 ovarian
UO-31 renal = test system: UO-31 renal
RPMI-8226 leukemia = test system: RPMI-8226 leukemia
RXF 393 renal = test system: RXF 393 renal
ACHN renal = test system: ACHN renal
SF-539 CNS = test system: SF-539 CNS
A549 NSCLC = test system: A549 NSCLC
OVCAR-8 ovarian = test system: OVCAR-8 ovarian
K-562 leukemia = test system: K-562 leukemia
IGROV1 ovarian = test system: IGROV1 ovarian
DU-145 prostate = test system: DU-145 prostate
HOP-92 NSCLC = test system: HOP-92 NSCLC
M14 melanoma = test system: M14 melanoma
COLO 205 colon = test system: COLO 205 colon
UACC-257 melanoma = test system: UACC-257 melanoma
MALME-3M melanoma = test system: MALME-3M melanoma
A498 renal = test system: A498 renal
NCI-H460 lung = test system: NCI-H460 lung
HOP-62 NSCLC = test system: HOP-62 NSCLC
HCC-2998 colon = test system: HCC-2998 colon
U251 CNS = test system: U251 CNS
SK-OV-3 ovarian = test system: SK-OV-3 ovarian
OVCAR-5 ovarian = test system: OVCAR-5 ovarian
SK-MEL-5 melanoma = test system: SK-MEL-5 melanoma
SF-268 CNS = test system: SF-268 CNS
NCI/ADR-RES ovarian = test system: NCI/ADR-RES ovarian
LOX IMVI melanoma = test system: LOX IMVI melanoma

`N#Cc1nc(-c2ccccc2C(=O)O)oc1N` showed a TGI (MDA-N) greater than 100 µM, a TGI (SF-295 CNS) greater than 100 µM and a TGI (MCF7 breast) greater than 100 µM. For the same molecule, the TGI (NCI-H522 lung) was greater than 100 µM, the TGI (HL-60(TB) leukemia) was greater than 100 µM and the TGI (CCRF-CEM leukemia) was greater than 100 µM. The TGI (NCI-H226 lung) was greater than 100 µM, the TGI (SK-MEL-2 melanoma) was greater than 100 µM and the TGI (HS 578T breast) was greater than 100 µM. The TGI (TK-10 renal) was greater than 100 µM, the TGI (786-0 renal) was greater than 100 µM and the TGI (HCT-116 colon) was greater than 100 µM. For the same molecule, the TGI (SR leukemia) was greater than 100 µM, the TGI (KM12 colon) was greater than 100 µM and the TGI (T-47D breast) was greater than 100 µM. The TGI (NCI-H23 lung) was greater than 100 µM, the TGI (MOLT-4 leukemia) was greater than 100 µM and the TGI (EKVX NSCLC) was greater than 100 µM. It also gave a TGI (OVCAR-4 ovarian) greater than 100 µM, a TGI (CAKI-1 renal) greater than 100 µM and a TGI (SN12C renal) greater than 100 µM. The TGI (SNB-19 CNS) was greater than 100 µM, the TGI (SNB-75 CNS) was greater than 100 µM and the TGI (SK-MEL-28 melanoma) was greater than 100 µM. It also gave a TGI (PC-3 prostate) greater than 100 µM, a TGI (UACC-62 melanoma) greater than 100 µM and a TGI (SW-620 colon) greater than 100 µM. The TGI (HCT-15 colon) was greater than 100 µM, the TGI (MDA-MB-435) was greater than 100 µM and the TGI (HT29 colon) was greater than 100 µM. It also gave a TGI (MDA-MB-231 breast) greater than 100 µM, a TGI (OVCAR-3 ovarian) greater than 100 µM and a TGI (UO-31 renal) greater than 100 µM. For the same molecule, the TGI (RPMI-8226 leukemia) was greater than 100 µM, the TGI (RXF 393 renal) was greater than 100 µM and the TGI (ACHN renal) was greater than 100 µM. It also gave a TGI (SF-539 CNS) greater than 100 µM, a TGI (A549 NSCLC) greater than 100 µM and a TGI (OVCAR-8 ovarian) greater than 100 µM. The TGI (K-562 leukemia) was greater than 100 µM, the TGI (IGROV1 ovarian) was greater than 100 µM and the TGI (DU-145 prostate) was greater than 100 µM. It also gave a TGI (HOP-92 NSCLC) greater than 100 µM, a TGI (M14 melanoma) greater than 100 µM and a TGI (COLO 205 colon) greater than 100 µM. The TGI (UACC-257 melanoma) was greater than 100 µM, the TGI (MALME-3M melanoma) was greater than 100 µM and the TGI (A498 renal) was greater than 100 µM. For the same molecule, the TGI (NCI-H460 lung) was greater than 100 µM, the TGI (HOP-62 NSCLC) was greater than 100 µM and the TGI (HCC-2998 colon) was greater than 100 µM. For the same molecule, the TGI (U251 CNS) was greater than 100 µM, the TGI (SK-OV-3 ovarian) was greater than 100 µM and the TGI (OVCAR-5 ovarian) was greater than 100 µM. The TGI (SK-MEL-5 melanoma) was greater than 100 µM, the TGI (SF-268 CNS) was greater than 100 µM and the TGI (NCI/ADR-RES ovarian) was greater than 100 µM. It also gave a TGI (LOX IMVI melanoma) greater than 100 µM.
In the case of `Cc1nc2nn[nH]n2c(=O)c1CCO`, the TGI (MDA-N) is reported as greater than 100 µM, the TGI (SF-295 CNS) is reported as greater than 100 µM and the TGI (MCF7 breast) is reported as greater than 100 µM. It also gave a TGI (NCI-H522 lung) greater than 100 µM, a TGI (HL-60(TB) leukemia) greater than 100 µM and a TGI (CCRF-CEM leukemia) greater than 100 µM. It also gave a TGI (NCI-H226 lung) greater than 100 µM, a TGI (SK-MEL-2 melanoma) greater than 100 µM and a TGI (HS 578T breast) greater than 100 µM. The TGI (TK-10 renal) was greater than 100 µM, the TGI (786-0 renal) was greater than 100 µM and the TGI (HCT-116 colon) was greater than 100 µM. The TGI (SR leukemia) was greater than 100 µM, the TGI (KM12 colon) was greater than 100 µM and the TGI (T-47D breast) was greater than 100 µM. It also gave a TGI (NCI-H23 lung) greater than 100 µM, a TGI (MOLT-4 leukemia) greater than 100 µM and a TGI (EKVX NSCLC) greater than 100 µM. The TGI (OVCAR-4 ovarian) was greater than 100 µM, the TGI (CAKI-1 renal) was greater than 100 µM and the TGI (SN12C renal) was greater than 100 µM. For the same molecule, the TGI (SNB-19 CNS) was greater than 100 µM, the TGI (SNB-75 CNS) was 85.7 µM and the TGI (SK-MEL-28 melanoma) was greater than 100 µM. The TGI (PC-3 prostate) was greater than 100 µM, the TGI (UACC-62 melanoma) was greater than 100 µM and the TGI (SW-620 colon) was greater than 100 µM. The TGI (HCT-15 colon) was greater than 100 µM, the TGI (MDA-MB-435) was greater than 100 µM and the TGI (HT29 colon) was greater than 100 µM. For the same molecule, the TGI (MDA-MB-231 breast) was greater than 100 µM, the TGI (OVCAR-3 ovarian) was greater than 100 µM and the TGI (UO-31 renal) was greater than 100 µM. It also gave a TGI (RPMI-8226 leukemia) greater than 100 µM, a TGI (RXF 393 renal) greater than 100 µM and a TGI (ACHN renal) greater than 100 µM. The TGI (SF-539 CNS) was greater than 100 µM, the TGI (A549 NSCLC) was greater than 100 µM and the TGI (OVCAR-8 ovarian) was greater than 100 µM. For the same molecule, the TGI (K-562 leukemia) was greater than 100 µM, the TGI (IGROV1 ovarian) was greater than 100 µM and the TGI (DU-145 prostate) was greater than 100 µM. For the same molecule, the TGI (HOP-92 NSCLC) was greater than 100 µM, the TGI (M14 melanoma) was greater than 100 µM and the TGI (COLO 205 colon) was greater than 100 µM. It also gave a TGI (UACC-257 melanoma) greater than 100 µM, a TGI (MALME-3M melanoma) greater than 100 µM and a TGI (A498 renal) greater than 100 µM. For the same molecule, the TGI (NCI-H460 lung) was greater than 100 µM, the TGI (HOP-62 NSCLC) was greater than 100 µM and the TGI (HCC-2998 colon) was greater than 100 µM. It also gave a TGI (U251 CNS) greater than 100 µM, a TGI (SK-OV-3 ovarian) greater than 100 µM and a TGI (OVCAR-5 ovarian) greater than 100 µM. It also gave a TGI (SK-MEL-5 melanoma) greater than 100 µM, a TGI (SF-268 CNS) greater than 100 µM and a TGI (NCI/ADR-RES ovarian) greater than 100 µM. The TGI (LOX IMVI melanoma) was greater than 100 µM.
With `COC1(C)OC[C@@]2(C)OC(C)C1(C)C2O[Si](C(C)C)(C(C)C)C(C)C` (some centres undefined) the TGI (MDA-N) was greater than 100 µM, the TGI (SF-295 CNS) was 47.3 µM and the TGI (MCF7 breast) was 32.9 µM. The TGI (NCI-H522 lung) was 59.1 µM, the TGI (HL-60(TB) leukemia) was 40.4 µM and the TGI (CCRF-CEM leukemia) was 54.6 µM. The TGI (NCI-H226 lung) was 45.8 µM, the TGI (SK-MEL-2 melanoma) was 45.2 µM and the TGI (HS 578T breast) was 86.8 µM. It also gave a TGI (TK-10 renal) of 80.2 µM, a TGI (786-0 renal) greater than 100 µM and a TGI (HCT-116 colon) greater than 100 µM. It also gave a TGI (SR leukemia) of 85.7 µM, a TGI (KM12 colon) greater than 100 µM and a TGI (T-47D breast) of 71.3 µM. The TGI (NCI-H23 lung) was 62.5 µM, the TGI (MOLT-4 leukemia) was 50.9 µM and the TGI (EKVX NSCLC) was 70.9 µM. It also gave a TGI (OVCAR-4 ovarian) greater than 100 µM, a TGI (CAKI-1 renal) of 88 µM and a TGI (SN12C renal) of 58.4 µM. For the same molecule, the TGI (SNB-19 CNS) was greater than 100 µM, the TGI (SNB-75 CNS) was 69.4 µM and the TGI (SK-MEL-28 melanoma) was greater than 100 µM. For the same molecule, the TGI (PC-3 prostate) was greater than 100 µM, the TGI (UACC-62 melanoma) was greater than 100 µM and the TGI (SW-620 colon) was greater than 100 µM. It also gave a TGI (HCT-15 colon) of 48 µM, a TGI (MDA-MB-435) greater than 100 µM and a TGI (HT29 colon) greater than 100 µM. For the same molecule, the TGI (MDA-MB-231 breast) was greater than 100 µM, the TGI (OVCAR-3 ovarian) was 50 µM and the TGI (UO-31 renal) was 96.7 µM. For the same molecule, the TGI (RPMI-8226 leukemia) was 89.3 µM, the TGI (RXF 393 renal) was 57 µM and the TGI (ACHN renal) was 62.2 µM. It also gave a TGI (SF-539 CNS) greater than 100 µM, a TGI (A549 NSCLC) greater than 100 µM and a TGI (OVCAR-8 ovarian) greater than 100 µM. It also gave a TGI (K-562 leukemia) of 82.3 µM, a TGI (IGROV1 ovarian) of 78.5 µM and a TGI (DU-145 prostate) greater than 100 µM. For the same molecule, the TGI (HOP-92 NSCLC) was 63 µM, the TGI (M14 melanoma) was greater than 100 µM and the TGI (COLO 205 colon) was 32.3 µM. It also gave a TGI (UACC-257 melanoma) of 47.6 µM, a TGI (MALME-3M melanoma) of 51 µM and a TGI (A498 renal) greater than 100 µM. For the same molecule, the TGI (NCI-H460 lung) was 62.9 µM, the TGI (HOP-62 NSCLC) was greater than 100 µM and the TGI (HCC-2998 colon) was 40.8 µM. The TGI (U251 CNS) was greater than 100 µM, the TGI (SK-OV-3 ovarian) was greater than 100 µM and the TGI (OVCAR-5 ovarian) was 71.8 µM. The TGI (SK-MEL-5 melanoma) was 52.5 µM, the TGI (SF-268 CNS) was greater than 100 µM and the TGI (NCI/ADR-RES ovarian) was 60.3 µM. It also gave a TGI (LOX IMVI melanoma) of 42.6 µM.
